The record followed here is patent US7662824B2, “Acylhydrazones as kinase modulators” (Janssen Pharmaceutica NV, priority 2005, dated 2010).

Values after ≈ are worked out from the molar mass of the structure shown. Where a name gives a salt, the structure may show the parent alone.

The target of series [1] is T1, c-Met (Homo sapiens, UniProt P08581). As to the kind of experiment: Delfia autophosphorylation kinase assay on the c-Met. In kind it is biochemical. On the set-up: The purified His6 tagged cytoplasmic domain of c-Met was diluted to a concentration of 500 ng/ml; made in house; host or cells: Sf9 insect cells with recombinant baculovirus; Large-scale expression and purification were done by the contract lab Pan Vera. The conditions noted are these: His6 tagged cytoplasmic domain of c-Met, 1 μM ATP; read-out: c-Met Delfia Autophos IC50. As to the method:
This example describes the cloning, expression, and purification of the cytoplasmic domain of c-Met which has the c-Met receptor tyrosine kinase activity.
A DELFIA time resolved fluorescence assay was developed for screening of compounds that decreases the autophosphorylation thus the kinase activity of c-Met.
The DELFIA assay is non-radioactive. The autophophorylation of the c-Met is measured by an anti-phosphotyrosine antibody coupled to an Europium tag.
A major advantage of this format is that it allowed for the development of an autophosphorylation assay using Ni-chelate plates which bind the hexa-his tag on the recombinant Met kinase. Autophosphorylation assay allows to use a known substrate, Met kinase itself, for the phosphorylation. The DELFIA Met autophosphorylation assay is very sensitive with a signal to noise ratio in excess of 50:1.
The assay procedure for screening is as follows. The purified His6 tagged cytoplasmic domain of c-Met was diluted to a concentration of 500 ng/ml in enzyme dilution buffer (50 mM Tris-HCl, pH8.0, 0.1% BSA) and dispensed to assay plates at a volume of 50 μl per well. Black opaque HisGrab Nickel coated 96 well plates (Pierce, Rockford, Ill.) were selected to run the assay. Next, 2.5 μl of compound in 40% DMSO was added to test wells, 2.5 μl of 40% DMSO only was added to the negative control wells. The autophosphorylation reaction was initiated upon the addition of 50 μl of reaction buffer, 50 mM Tris-HCl, pH 8.0, 10 mM MgCl2, 0.1 mM Na3VO4, 1 mM DTT, 1 μM ATP. Plates were incubated at room temperature for 1 hour followed by 2 washes with 200 μl/well of PBS. Europium conjugated anti-phosphotyrosine antibody, Eu-PY20 from Perkin Elmer was diluted to 50 ng/ml in Delfia AB buffer (Perkin Elmer, Boston, Mass.), added to the 96 well assay plates at a volume of […], and incubated at room temperature for 2 hours. Assay plates were then washed 4 times each with 200 μl/well of Delfia wash buffer (Perkin Elmer). After the final wash 150 μl of Delfia Enhancement solution (Perkin Elmer) was added to each well of the assay plate and incubated at room temperature for 1 hour. Plates were read on an LJL Analyst instrument (Molecular Devices; Sunnyvale, Calif.) with filter settings of 360 excitation, 620 emission, and 410 dichroic. IC50 values were calculated using Graphpad Prism software (Graphpad Software; San Diego, Calif.).
Target sequence in this assay (P08581 956-1390 limits assumed): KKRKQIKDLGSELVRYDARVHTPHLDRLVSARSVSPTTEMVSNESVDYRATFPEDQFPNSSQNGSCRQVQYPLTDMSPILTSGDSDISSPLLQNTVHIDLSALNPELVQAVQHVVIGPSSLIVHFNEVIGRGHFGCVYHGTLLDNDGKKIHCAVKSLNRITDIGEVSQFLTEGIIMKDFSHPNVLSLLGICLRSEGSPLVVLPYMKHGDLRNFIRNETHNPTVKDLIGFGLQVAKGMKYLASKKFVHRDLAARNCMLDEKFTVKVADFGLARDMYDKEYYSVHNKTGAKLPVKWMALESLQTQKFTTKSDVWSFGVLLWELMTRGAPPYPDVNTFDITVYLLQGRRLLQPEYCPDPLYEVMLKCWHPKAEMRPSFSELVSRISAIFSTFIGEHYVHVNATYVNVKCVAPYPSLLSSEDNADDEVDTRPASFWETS

Another series in a line: Aqueous solubility assay. Conditions: water with 0.4% DMSO, kinetic from dmso stock.
For series [2], the target named is T1, c-Met. Kind of series: Fluorescence polarization assay on the kinase activity of c-Met. In kind it is biochemical. On the set-up: The c-Met kinase domain consists amino acid 1046-1390 of the c-Met protein; made in house; host or cells: Sf9 insect cells with baculovirus. Conditions: 6H-TEV-cMet, poly Gly4Tyr substrate, 10 μM ATP; read-out: c-Met FP Enz IC50. From the text: A fluorescence polarization assay (FP) was developed for screening of compounds that decreases the kinase activity of c-Met.
A protein (6H-TEV-cMet) comprising c-Met kinase domain was cloned, recombinantly expressed and purified following a procedure similar to that as described in Example A. The protein comprises a His tag consisting of six histidines at its N-terminal, a TEV protease cleavage site, and the c-Met kinase domain. The c-Met kinase domain consists amino acid 1046-1390 of the c-Met protein as listed in GenBank protein accession number P08581.
For the c-Met kinase assay, the 6H-TEV-cMet was used as the enzyme, and a poly Gly4Tyr peptide (Sigma, P-0275) was used as the substrate. The kinase reaction was performed in a volume of 10 μl in HE microplates (LJL Biosystems). Assay conditions were as follows: 100 mM HEPES pH 7.5, 0.01% Tween-20, 1 mM DTT, 5 mM MgCl2, 10 μM ATP, 10 μg/ml poly Gly4Tyr. The kinase reaction was initiated upon addition of 10 nM 6H-TEV-cMet. After a 12 minute incubation at room temperature the reaction was terminated with […] 50 mM EDTA.
Phosphorylation of the peptide substrate was detected with PanVera Tyrosine Kinase Assay Kit, Green reagents (P2837). Five minutes after the addition of EDTA, 10 μl of antibody/tracer mix (Pan Vera reagents, 1:1:3 dilution of antibody: Tracer: FP dilution buffer, Cat. # P2837) was added to each well. Plates were allowed to incubate for 30 minutes at room temperature and fluorescence polarization was measured with an LJL Analyst instrument (Molecular Devices; Sunnyvale, Calif.) with excitation=485 nm filter and emission=530 nm filter. IC50 values were calculated from triplicate sets of data using Graphpad Prism software (Graphpad Software; San Diego, Calif.).
Target sequence in this assay (P08581 1046-1390): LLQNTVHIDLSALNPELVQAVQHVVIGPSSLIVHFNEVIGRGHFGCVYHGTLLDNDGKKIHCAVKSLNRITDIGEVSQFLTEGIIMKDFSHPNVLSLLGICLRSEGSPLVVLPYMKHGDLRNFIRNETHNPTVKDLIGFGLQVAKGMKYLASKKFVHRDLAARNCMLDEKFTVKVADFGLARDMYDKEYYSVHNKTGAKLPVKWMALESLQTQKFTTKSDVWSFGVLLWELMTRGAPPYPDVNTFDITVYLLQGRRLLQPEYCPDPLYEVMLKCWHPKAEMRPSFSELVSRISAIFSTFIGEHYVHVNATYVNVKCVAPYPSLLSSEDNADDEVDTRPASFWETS
On the technique in general: In fluorescence polarisation assays a small probe gives low polarisation when free and higher when bound to something large.

Experimental for Aqueous solubility assay: Water, PBS and aqueous HCl at pH2 having a final DMSO content of 0.4%, with the final DMSO concentration reaching 40 μM. Samples were placed in the incubator and shaken for 15 minutes.

A word on the IC50: it is the concentration needed to halve the response being measured. On to `CN(C)CCCNC(=O)c1cc(Br)c2c(c1)NC(=O)/C2=N\NC(=O)Cc1ccc2c(c1)CCO2` [Example 9, 4-Bromo-3-[(2-2,3-dihydro-benzofuran-5-yl-acetyl)-hydrazono]-2-oxo-2,3-dihydro-1H-indole-6-carboxylic acid (3-dimethylamino-propyl)-amide], for which the concentration for half-maximal inhibition (IC50) on c-Met [1] came out at 5 nM. Turning to `CN1CCN(C(=O)c2cc(Br)c3c(c2)NC(=O)/C3=N\NC(=O)Cc2ccc3sccc3c2)CC1` [Example 18, Benzothiophen-5-yl-acetic acid [4-bromo-6-(4-methyl-piperazine-1-carbonyl)-2-oxo-1,2-dihydro-indol-3-ylidene]-hydrazide hydrochloride], the IC50 on c-Met [1] worked out at 4700 nM. As to `O=C(Cc1ccc2c(c1)CCO2)N/N=C1\C(=O)Nc2cc(C(=O)NCCCN3CC[C@@H](O)C3)cc(Br)c21` [Example 10, (R)-4-Bromo-3-[(2-2,3-dihydro-benzofuran-5-yl-acetyl)-hydrazono]-2-oxo-2,3-dihydro-1H-indole-6-carboxylic acid [3-(3-hydroxy-pyrrolidin-1-yl)-propyl]-amide], the IC50 at c-Met [1] came to 0.7 nM. The same measure, in the same setting: next, `CN1CCN(C(=O)c2cc(Br)c3c(c2)NC(=O)/C3=N\NC(=O)Cc2ccc3occc3c2)CC1` [Example 16, Benzofuran-5-yl-acetic acid [4-bromo-6-(4-methyl-piperazine-1-carbonyl)-2-oxo-1,2-dihydro-indol-3-ylidene]-hydrazide hydrochloride]: 65 nM. In general, solubility refers to the dissolved amount per volume that the medium holds. The low end stands for little dissolved substance, the high end for much dissolved substance. Consider `CN(C)CCNC(=O)c1cc(Br)c2c(c1)NC(=O)/C2=N\NC(=O)Cc1ccc2c(c1)CCO2` [Example 8, 4-Bromo-3-[(2-2,3-dihydro-benzofuran-5-yl-acetyl)-hydrazono]-2-oxo-2,3-dihydro-1H-indole-6-carboxylic acid (2-dimethylamino-ethyl)-amide], for which the solubility at 15 min in “Aqueous solubility assay” was found to be 41.1 µM (≈ 21.1 µg/mL). Further, the 50% inhibitory concentration (IC50) on c-Met [1] came to 1 nM; on c-Met [2], 10 nM. The like results for `O=C(Cc1ccc2c(c1)CCO2)N/N=C1\C(=O)Nc2cc(C(=O)NCCN3CCOCC3)cc(Br)c21` [Example 6, 4-Bromo-3-[(2-2,3-dihydro-benzofuran-5-yl-acetyl)-hydrazono]-2-oxo-2,3-dihydro-1H-indole-6-carboxylic acid (2-morpholin-4-yl-ethyl)-amide] were, in that order, 44 µM (≈ 24.5 µg/mL), 5 nM and 5 nM. In turn, `CN1CCN(CCCNC(=O)c2ccc3c(c2)NC(=O)/C3=N\NC(=O)Cc2ccc3c(c2)CCO3)CC1` [Example 4, 3-[(2-2,3-Dihydro-benzofuran-5-yl-acetyl)-hydrazono]-2-oxo-2,3-dihydro-1H-indole-6-carboxylic acid [3-(4-methyl-piperazin-1-yl)-propyl]-amide] yielded a solubility at 15 min in “Aqueous solubility assay” of 37.9 µM (≈ 19.1 µg/mL). Moreover, the IC50 on c-Met [1] was found to be 28 nM.

In the case of `O=C(Cc1ccc2c(c1)CCO2)N/N=C1\C(=O)Nc2cc(C(=O)NCCCN3CCC[C@@H]3CO)cc(Br)c21` [Example 11, (R)-4-Bromo-3-[(2-2,3-dihydro-benzofuran-5-yl-acetyl)-hydrazono]-2-oxo-2,3-dihydro-1H-indole-6-carboxylic acid [3-(2-hydroxymethyl-pyrrolidin-1-yl)-propyl]-amide], the IC50 on c-Met [1] was 0.5 nM. On the same count and under the same terms, for `O=C(Cc1ccc2c(c1)CCO2)N/N=C1\C(=O)Nc2cc(C(=O)NCCCN3CCC(O)CC3)cc(Br)c21` [Example 12, 4-Bromo-3-[(2-2,3-dihydro-benzofuran-5-yl-acetyl)-hydrazono]-2-oxo-2,3-dihydro-1H-indole-6-carboxylic acid [3-(4-hydroxy-piperidin-1-yl)-propyl]-amide] the value was 2 nM. On the same count and under the same terms, next, `O=C(Cc1ccc2c(c1)CCO2)N/N=C1\C(=O)Nc2cc(C(=O)NCCCO)cc(Br)c21` [Example 15, 4-Bromo-3-[(2-2,3-dihydro-benzofuran-5-yl-acetyl)-hydrazono]-2-oxo-2,3-dihydro-1H-indole-6-carboxylic acid (3-hydroxy-propyl)-amide]: 1 nM; `CN(C)CCCNC(=O)c1cc(Br)c2c(c1)NC(=O)/C2=N\NC(=O)Cc1ccc2occc2c1` [Example 14, 3-[(2-Benzofuran-5-yl-acetyl)-hydrazono]-4-bromo-2-oxo-2,3-dihydro-1H-indole-6-carboxylic acid (3-dimethylamino-propyl)-amide]: 1.6 nM. As for “4-Bromo-3-[(2-2,3-dihydro-benzofuran-5-yl-acetyl)-hydrazono]-2-oxo-2,3-dihydro-1H-indole-6-carboxylic acid (3-morpholin-4-yl-propyl)-amide [Example 7]”, the half-maximal inhibitory concentration (IC50) at c-Met [1] amounted to 0.7 nM; at c-Met [2], 1 nM. In the case of `CN1CCN(C(=O)c2cc(Br)c3c(c2)NC(=O)/C3=N\NC(=O)Cc2ccc3onc(N)c3c2)CC1` [Example 19, (3-Amino-benzo[d]isoxazol-5-yl)-acetic acid [4-bromo-6-(4-methyl-piperazine-1-carbonyl)-2-oxo-1,2-dihydro-indol-3-ylidene]-hydrazide], the IC50 on c-Met [1] was found to be 158 nM. On the same count and under the same terms, next, `O=C(Cc1ccc2c(c1)CCO2)N/N=C1\C(=O)Nc2cc(C(=O)NCCCN3CC[C@H](O)C3)cc(Br)c21` [Example 13, (S)-4-Bromo-3-[(2-2,3-dihydro-benzofuran-5-yl-acetyl)-hydrazono]-2-oxo-2,3-dihydro-1H-indole-6-carboxylic acid [3-(3-hydroxy-pyrrolidin-1-yl)-propyl]-amide]: 1 nM; `CN1CCN(C(=O)c2cc(Br)c3c(c2)NC(=O)/C3=N\NC(=O)Cc2ccc3ocnc3c2)CC1` [Example 17, Benzooxazol-5-yl-acetic acid [4-bromo-6-(4-methyl-piperazine-1-carbonyl)-2-oxo-1,2-dihydro-indol-3-ylidene]-hydrazide]: 656 nM; `O=C(Cc1ccc2c(c1)CCO2)N/N=C1/C(=O)Nc2cc(C(=O)NCCCN3CCC[C@H]3CO)cc(Br)c21` [Example 1, (S)-4-Bromo-3-[(2-2,3-dihydro-benzofuran-5-yl-acetyl)-hydrazono]-2-oxo-2,3-dihydro-1H-indole-6-carboxylic acid [3-(2-hydroxymethyl-pyrrolidin-1-yl)-propyl]-amide]: 6 nM.

Turning to `CN1CCN(C(=O)c2cc(Br)c3c(c2)NC(=O)/C3=N\NC(=O)Cc2ccc3c(c2)CCO3)CC1` [Example 2, (2,3-Dihydro-benzofuran-5-yl)-aceticacid[4-bromo-6-(4-methyl-piperazine-1-carbonyl)-2-oxo-1,2-dihydro-indol-3-ylidene]-hydrazide], the solubility at 15 min in the series “Aqueous solubility assay” was found to be 43.9 µM (≈ 23.1 µg/mL). For the same compound, on c-Met [1], the IC50 was found to be 10 nM.
